Biological target: T1, NLRP3 inflammasome (Homo sapiens, UniProt Q96P20)
T1 construct: endogenous in cells; host or cells: THP-1 (human monocyte-derived), PMA-differentiated, Nigericin-stimulated
Assay: In vitro IL-1β production test (PMA-differentiated THP-1 cells, Nigericin stimulation, AlphaLISA)
Format: cell-based
Details: inhibition of IL-1β production; THP-1 cells differentiated with 200 nM PMA; 0.015 mM Nigericin; 2 hours
Summary of the method: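 THP-1 cells were differentiated one day with 200 nM PMA, then given serum-free medium with 0.015 mM nigericin plus compound for 2 h. Supernatant IL-1β was measured by AlphaLISA, with nigericin alone as 0% and unstimulated as 100% inhibition. IC50 came from logistic sigmoid fitting.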

T1 sequence (Q96P20 whole entry): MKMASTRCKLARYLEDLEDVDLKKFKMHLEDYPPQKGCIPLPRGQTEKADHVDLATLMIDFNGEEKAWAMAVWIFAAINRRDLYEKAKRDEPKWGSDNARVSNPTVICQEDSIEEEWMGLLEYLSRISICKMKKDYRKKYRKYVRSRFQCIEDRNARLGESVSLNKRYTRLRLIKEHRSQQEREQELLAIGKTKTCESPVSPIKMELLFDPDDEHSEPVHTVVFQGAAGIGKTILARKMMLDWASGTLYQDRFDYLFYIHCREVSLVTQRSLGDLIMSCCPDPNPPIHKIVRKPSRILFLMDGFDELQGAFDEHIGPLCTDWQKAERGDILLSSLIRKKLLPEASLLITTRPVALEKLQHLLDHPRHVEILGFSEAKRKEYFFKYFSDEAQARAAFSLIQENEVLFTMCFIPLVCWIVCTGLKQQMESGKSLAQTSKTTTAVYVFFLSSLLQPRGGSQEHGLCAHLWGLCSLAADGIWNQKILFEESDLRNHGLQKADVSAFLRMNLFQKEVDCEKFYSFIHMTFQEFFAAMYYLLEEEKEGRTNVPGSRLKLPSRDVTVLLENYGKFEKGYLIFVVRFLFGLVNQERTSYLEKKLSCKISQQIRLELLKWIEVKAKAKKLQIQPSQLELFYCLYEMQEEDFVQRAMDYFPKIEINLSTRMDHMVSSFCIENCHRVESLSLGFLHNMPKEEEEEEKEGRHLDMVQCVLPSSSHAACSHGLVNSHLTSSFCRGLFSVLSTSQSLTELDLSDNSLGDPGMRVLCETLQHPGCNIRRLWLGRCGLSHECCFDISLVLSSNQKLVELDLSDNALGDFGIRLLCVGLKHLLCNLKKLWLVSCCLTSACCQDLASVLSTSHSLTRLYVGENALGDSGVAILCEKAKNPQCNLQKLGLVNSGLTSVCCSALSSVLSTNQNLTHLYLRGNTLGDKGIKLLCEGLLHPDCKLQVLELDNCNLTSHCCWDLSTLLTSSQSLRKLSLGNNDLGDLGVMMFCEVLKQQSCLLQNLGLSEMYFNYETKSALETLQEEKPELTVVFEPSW

| Compound | IC50 |
| --- | --- |
| CCN1CCC[C@@H](n2cc(C#N)c3cc(-c4c(C)cc(C(F)(F)F)cc4O)nnc32)C1 [Example 64, 7-[(3R)-1-ethylpiperidin-3-yl]-3-[2-hydroxy-6-methyl-4-(trifluoromethyl)phenyl]-7H-pyrrolo[2,3-c]pyridazine-5-carbonitrile] | 0.0096 µM |
| CCN1CCC[C@@H](n2cc(C#N)c3cc(-c4c(C)cc(OC(F)F)cc4O)nnc32)C1 [Example 67, 3-[4-(difluoromethoxy)-2-hydroxy-6-methylphenyl]-7-[(3R)-1-ethylpiperidin-3-yl]-7H-pyrrolo[2,3-c]pyridazine-5-carbonitrile] | 0.00493 µM |
| Cc1cc(OC(F)F)cc(O)c1-c1cc2c(C#N)cn([C@@H]3CCCN(C(C)C)C3)c2nn1 [Example 68, 3-[4-(difluoromethoxy)-2-hydroxy-6-methylphenyl]-7-[(3R)-1-(propan-2-yl)piperidin-3-yl]-7H-pyrrolo[2,3-c]pyridazine-5-carbonitrile] | 0.00601 µM |
| Cc1cc(C(C)(F)F)cc(O)c1-c1cc2c(C)cn([C@H]3C[C@@](C)(O)C3)c2nn1 [Example 69, 5-(1,1-difluoroethyl)-2-{7-[(1s,3s)-3-hydroxy-3-methylcyclobutyl]-5-methyl-7H-pyrrolo[2,3-c]pyridazin-3-yl}-3-methylphenol] | 0.0478 µM |
| Cc1cc(C(F)(F)F)cc(O)c1-c1cc2c(C)cn(C34CCC(O)(C3)C4)c2nn1 [Example 70, 4-{3-[2-hydroxy-6-methyl-4-(trifluoromethyl)phenyl]-5-methyl-7H-pyrrolo[2,3-c]pyridazin-7-yl}bicyclo[2.1.1]hexan-1-ol] | 0.0312 µM |
| COc1cn([C@H]2C[C@@](C)(O)C2)c2nnc(-c3c(C)cc(OC(F)F)cc3O)cc12 [Example 72, 5-(difluoromethoxy)-2-{7-[(1s,3s)-3-hydroxy-3-methylcyclobutyl]-5-methoxy-7H-pyrrolo[2,3-c]pyridazin-3-yl}-3-methylphenol] | 0.0531 µM |
| CCN1CC2(O)CC(n3cc(C)c4cc(-c5c(C)cc(C(F)(F)F)cc5O)nnc43)(C1)C2 [Example 75, 3-ethyl-5-{3-[2-hydroxy-6-methyl-4-(trifluoromethyl)phenyl]-5-methyl-7H-pyrrolo[2,3-c]pyridazin-7-yl}-3-azabicyclo[3.1.1]heptan-1-ol] | 0.0984 µM |
| Cc1cc(C(F)(F)F)cc(O)c1-c1cc2c3c(n([C@H]4C[C@@](C)(O)C4)c2nn1)CCO3 [Example 83, 2-{8-[(1s,3s)-3-hydroxy-3-methylcyclobutyl]-7,8-dihydro-6H-furo[2′,3′:4,5]pyrrolo[2,3-c]pyridazin-3-yl}-3-methyl-5-(trifluoromethyl)phenol] | 0.00916 µM |
| Cc1cc(C(F)(F)F)cc(O)c1-c1cc2ccn(C34CCCC(O)(C3)C4)c2nn1 [Example 88, 5-{3-[2-hydroxy-6-methyl-4-(trifluoromethyl)phenyl]-7H-pyrrolo[2,3-c]pyridazin-7-yl}bicyclo[3.1.1]heptan-1-ol] | 0.0431 µM |
| Cc1cc(C(F)(F)F)cc(O)c1-c1cc2ccn(C[C@H](C)O)c2nn1 [Example 89, 2-{7-[(28)-2-hydroxypropyl]-7H-pyrrolo[2,3-c]pyridazin-3-yl}-3-methyl-5-(trifluoromethyl)phenol] | 0.138 µM |
| Cc1cc(F)cc(O)c1-c1cc2c(C)cn([C@H]3C[C@@](C)(O)C3)c2nn1 [Example 91, 5-fluoro-2-{7-[(1s,3s)-3-hydroxy-3-methylcyclobutyl]-5-methyl-7H-pyrrolo[2,3-c]pyridazin-3-yl}-3-methylphenol] | 0.125 µM |

More lines, in order of falling IC50, values ahead:

| IC50 | Compound |
| --- | --- |
| 0.0565 µM | Cc1cc(C)c(-c2cc3c(C)cn([C@H]4C[C@@](C)(O)C4)c3nn2)c(O)c1 [Example 90, 2-{7-[(1s,3s)-3-hydroxy-3-methylcyclobutyl]-5-methyl-7H-pyrrolo[2,3-c]pyridazin-3-yl}-3,5-dimethylphenol] |
| 0.0547 µM | Cc1cc(C(F)(F)F)cc(O)c1-c1cc2c3ccccc3n([C@H]3C[C@@](C)(O)C3)c2nn1 [Example 81, 2-{9-[(1s,3s)-3-hydroxy-3-methylcyclobutyl]-9H-pyridazino[3,4-b]indol-3-yl}-3-methyl-5-(trifluoromethyl)phenol] |
| 0.047 µM | Cc1cc(C(F)(F)F)cc(O)c1-c1cc2c(C)cn(C34COCC(O)(C3)C4)c2nn1 [Example 65, 5-{3-[2-hydroxy-6-methyl-4-(trifluoromethyl)phenyl]-5-methyl-7H-pyrrolo[2,3-c]pyridazin-7-yl}-3-oxabicyclo[3.1.1]heptan-1-ol] |
| 0.0401 µM | Cc1cc(C(F)(F)F)cc(O)c1-c1cc2cc(C)n([C@H]3C[C@@](C)(O)C3)c2nn1 [Example 87, 2-{7-[(1s,3s)-3-hydroxy-3-methylcyclobutyl]-6-methyl-7H-pyrrolo[2,3-c]pyridazin-3-yl}-3-methyl-5-(trifluoromethyl)phenol] |
| 0.035 µM | Cc1cc(OC(F)F)cc(O)c1-c1cc2c(OC(F)F)cn([C@H]3C[C@@](C)(O)C3)c2nn1 [Example 78, 5-(difluoromethoxy)-2-[5-(difluoromethoxy)-7-[(1s,3s)-3-hydroxy-3-methylcyclobutyl]-7H-pyrrolo[2,3-c]pyridazin-3-yl]-3-methylphenol] |
| 0.0261 µM | Cc1cc(OC(F)F)cc(O)c1-c1cc2c(C#N)cn([C@H]3C[C@@](C)(O)C3)c2nn1 [Example 74, 3-[4-(difluoromethoxy)-2-hydroxy-6-methylphenyl]-7-[(1s,3s)-3-hydroxy-3-methylcyclobutyl]-7H-pyrrolo[2,3-c]pyridazine-5-carbonitrile] |
| 0.0224 µM | Cc1cc(OC(F)F)cc(O)c1-c1cc2c3c(n([C@H]4C[C@@](C)(O)C4)c2nn1)CCC3 [Example 80, 5-(difluoromethoxy)-2-{8-[(1s,3s)-3-hydroxy-3-methylcyclobutyl]-5,6,7,8-tetrahydrocyclopenta[4,5]pyrrolo[2,3-c]pyridazin-3-yl}-3-methylphenol] |
| 0.0164 µM | CCN1C[C@H](F)C[C@@H](N2CCc3cc(-c4c(C)cc(C(F)(F)F)cc4O)nnc32)C1 [Example 66, 2-{7-[(3R,5R)-1-ethyl-5-fluoropiperidin-3-yl]-6,7-dihydro-5H-pyrrolo[2,3-c]pyridazin-3-yl}-3-methyl-5-(trifluoromethyl)phenol] |
| 0.014 µM | CCN1CCC[C@@H](n2cc(OC)c3cc(-c4c(C)cc(C(F)(F)F)cc4O)nnc32)C1 [Example 77, 2-{7-[(3R)-1-ethylpiperidin-3-yl]-5-methoxy-7H-pyrrolo[2,3-c]pyridazin-3-yl}-3-methyl-5-(trifluoromethyl)phenol] |
| 0.0128 µM | Cc1cc(C(F)(F)F)cc(O)c1-c1cc2ccn(-c3ncc(F)cn3)c2nn1 [Example 84, 2-[7-(5-fluoropyrimidin-2-yl)-7H-pyrrolo[2,3-c]pyridazin-3-yl]-3-methyl-5-(trifluoromethyl)phenol] |
| 0.00818 µM | CCN1CCC[C@@H](n2cc(C)c3cc(-c4c(C)cc(OC(F)F)cc4O)nnc32)C1 [Example 71, 5-(difluoromethoxy)-2-{7-[(3R)-1-ethylpiperidin-3-yl]-5-methyl-7H-pyrrolo[2,3-c]pyridazin-3-yl}-3-methylphenol] |
| 0.00783 µM | Cc1cc(Cl)cc(O)c1-c1cc2c3c(n([C@H]4C[C@@](C)(O)C4)c2nn1)CCC3 [Example 82, 5-chloro-2-{8-[(1s,3s)-3-hydroxy-3-methylcyclobutyl]-5,6,7,8-tetrahydrocyclopenta[4,5]pyrrolo[2,3-c]pyridazin-3-yl}-3-methylphenol] |
